Test results taken from the supplement of paper PMC10733146.

Tests used:
Assay in all cases: viability relative to DMSO control (fraction); higher = less drug effect (more viable cells)
Conditions in all cases: 48 h
[1] = compound: C[C@H]1C[C@@H](n2c(Nc3ccc(OC(F)(F)F)cc3)nc3cc(CCC(=O)O)ccc32)CC(C)(C)C1
Outline: (§1)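 The cells were primary mononuclear tumour cells, either fresh or cryopreserved, isolated by Ficoll from blood or bone marrow or derived from processed lymph node. Each well of a 384-well plate received 4 × 10^4 cells onto compounds pre-plated at five concentrations, with one well per concentration. The medium was RPMI-1640 with penicillin/streptomycin, L-glutamine and human serum, and plates stood at 37 °C and 5% CO2 for 48 h. Viability is reported as CellTiter-Glo luminescence relative to the median of 16 inner DMSO wells.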

[2] = compound: CC1(C)CCC(CN2CCN(c3ccc(C(=O)NS(=O)(=O)c4ccc(NCC5CCOCC5)c([N+](=O)[O-])c4)c(Oc4cnc5[nH]ccc5c4)c3)CC2)=C(c2ccc(Cl)cc2)C1 [Venetoclax]
Outline: as §1

[3] = compound: CCS(=O)(=O)N1CCC([C@@H](C)n2c(C)c(C(=O)NCc3c(OC)cc(C)[nH]c3=O)c3ccccc32)CC1 [CPI-169]
Outline: as §1

[4] = compound: c1cn2cc(-c3ccc4cn[nH]c4c3)nc(Nc3ccc(N4CCOCC4)cc3)c2n1 [Entospletinib]
Outline: as §1

[5] = compound: CC[C@]1(O)C[C@@H]2CN(CCc3c([nH]c4ccccc34)[C@@](C(=O)OC)(c3cc4c(cc3OC)N(C)[C@H]3[C@@](O)(C(N)=O)[C@H](O)[C@]5(CC)C=CCN6CC[C@]43[C@@H]65)C2)C1 [Vindesine]
Outline: as §1

[6] = compound: C[C@@H]1CCN(C(=O)CC#N)C[C@@H]1N(C)c1ncnc2[nH]ccc12 [Tofacitinib]
Outline: as §1

[7] = compound: CO[C@H]1C[C@@H]2CC[C@@H](C)[C@@](O)(O2)C(=O)C(=O)N2CCCC[C@H]2C(=O)O[C@H]([C@H](C)C[C@@H]2CC[C@@H](OCCO)[C@H](OC)C2)CC(=O)[C@H](C)/C=C(\C)[C@@H](O)[C@@H](OC)C(=O)[C@H](C)C[C@H](C)/C=C/C=C/C=C/1C [Everolimus]
Outline: as §1

[8] = compound: CO[C@@H]1[C@H](N(C)C(=O)c2ccccc2)C[C@H]2O[C@]1(C)n1c3ccccc3c3c4c(c5c6ccccc6n2c5c31)C(=O)NC4 [Midostaurin hydrate]
Outline: as §1

[9] = compound: CC(C)N(CCCNC(=O)Nc1ccc(C(C)(C)C)cc1)C[C@H]1O[C@@H](n2cc(Br)c3c(N)ncnc32)[C@H](O)[C@@H]1O [SGC 0946]
Outline: as §1

[10] = compound: COc1cc(C(=O)O)ccc1NC(=O)[C@@H]1N[C@@H](CC(C)(C)C)[C@](C#N)(c2ccc(Cl)cc2F)[C@H]1c1cccc(Cl)c1F [Idasanutlin (RS7388)]
Outline: as §1

[11] = compound: CCc1ccc(/C=C2/SC(=S)NC2=O)cc1
Outline: as §1

[12] = compound: C[C@H](NC(=O)CCC(F)(F)F)C(=O)N[C@@H]1C(=O)N(CCO)c2ncccc2-c2ccccc21
Outline: as §1

[13] = compound: CCN(c1cc(-c2ccc(CN3CCOCC3)cc2)cc(C(=O)NCc2c(C)cc(C)[nH]c2=O)c1C)C1CCOCC1 [EPZ-6438]
Outline: as §1

Test System: primary DLBCL patient cells (S082)
- viability ([1]; 0.024 µM): 0.849
- viability ([1]; 0.12 µM): 1.04
- viability ([1]; 0.6 µM): 0.914
- viability ([1]; 3 µM): 0.847
- viability ([1]; 15 µM): 0.943
- viability ([2]; 0.00064 µM): 1.01
- viability ([2]; 0.0032 µM): 0.876
- viability ([2]; 0.016 µM): 0.547
- viability ([2]; 0.08 µM): 0.143
- viability ([2]; 0.4 µM): 0.0409
- viability ([3]; 0.024 µM): 0.893
- viability ([3]; 0.12 µM): 0.906
- viability ([3]; 0.6 µM): 0.87
- viability ([3]; 3 µM): 0.859
- viability ([3]; 15 µM): 0.866
- viability ([4]; 0.024 µM): 1.04
- viability ([4]; 0.12 µM): 1.03
- viability ([4]; 0.6 µM): 0.89
- viability ([4]; 3 µM): 0.98
- viability ([4]; 15 µM): 0.926
- viability ([5]; 0.016 µM): 0.728
- viability ([5]; 0.08 µM): 0.56
- viability ([5]; 0.4 µM): 0.532
- viability ([5]; 2 µM): 0.421
- viability ([5]; 10 µM): 0.366
- viability ([6]; 0.024 µM): 0.93
- viability ([6]; 0.12 µM): 0.941
- viability ([6]; 0.6 µM): 0.967
- viability ([6]; 3 µM): 1.08
- viability ([6]; 15 µM): 1.02
- viability ([7]; 0.0032 µM): 0.892
- viability ([7]; 0.016 µM): 0.816
- viability ([7]; 0.08 µM): 0.841
- viability ([7]; 0.4 µM): 0.782
- viability ([7]; 2 µM): 0.807
- viability ([8]; 0.024 µM): 1.03
- viability ([8]; 0.12 µM): 0.986
- viability ([8]; 0.6 µM): 0.999
- viability ([8]; 3 µM): 0.814
- viability ([8]; 15 µM): 0.224
- viability ([9]; 0.024 µM): 0.899
- viability ([9]; 0.12 µM): 0.975
- viability ([9]; 0.6 µM): 0.932
- viability ([9]; 3 µM): 0.91
- viability ([9]; 15 µM): 0.834
- viability ([10]; 0.032 µM): 0.954
- viability ([10]; 0.16 µM): 1.08
- viability ([10]; 0.8 µM): 1.09
- viability ([10]; 4 µM): 0.924
- viability ([10]; 20 µM): 1.13
- viability ([11]; 0.024 µM): 0.764
- viability ([11]; 0.12 µM): 0.807
- viability ([11]; 0.6 µM): 0.905
- viability ([11]; 3 µM): 0.871
- viability ([11]; 15 µM): 0.821
- viability ([12]; 0.016 µM): 1.1
- viability ([12]; 0.08 µM): 1.12
- viability ([12]; 0.4 µM): 1.08
- viability ([12]; 2 µM): 1.19
- viability ([12]; 10 µM): 1.16
- viability ([13]; 0.024 µM): 0.978
- viability ([13]; 0.12 µM): 0.97
- viability ([13]; 0.6 µM): 0.962
- viability ([13]; 3 µM): 0.896
- viability ([13]; 15 µM): 0.905

Test System: primary MCL patient cells (S053)
- viability ([1]; 0.024 µM): 0.773
- viability ([1]; 0.12 µM): 0.895
- viability ([1]; 0.6 µM): 0.816
- viability ([1]; 3 µM): 0.771
- viability ([1]; 15 µM): 0.903
- viability ([2]; 0.00064 µM): 0.761
- viability ([2]; 0.0032 µM): 0.449
- viability ([2]; 0.016 µM): 0.332
- viability ([2]; 0.08 µM): 0.288
- viability ([2]; 0.4 µM): 0.253
- viability ([3]; 0.024 µM): 0.814
- viability ([3]; 0.12 µM): 0.795
- viability ([3]; 0.6 µM): 0.877
- viability ([3]; 3 µM): 0.815
- viability ([3]; 15 µM): 0.727
- viability ([4]; 0.024 µM): 1.04
- viability ([4]; 0.12 µM): 1.01
- viability ([4]; 0.6 µM): 0.825
- viability ([4]; 3 µM): 1.03
- viability ([4]; 15 µM): 0.912
- viability ([5]; 0.016 µM): 0.462
- viability ([5]; 0.08 µM): 0.346
- viability ([5]; 0.4 µM): 0.362
- viability ([5]; 2 µM): 0.321
- viability ([5]; 10 µM): 0.339
- viability ([6]; 0.024 µM): 0.923
- viability ([6]; 0.12 µM): 0.947
- viability ([6]; 0.6 µM): 0.973
- viability ([6]; 3 µM): 1.17
- viability ([6]; 15 µM): 1.32
- viability ([7]; 0.0032 µM): 0.958
- viability ([7]; 0.016 µM): 0.928
- viability ([7]; 0.08 µM): 0.926
- viability ([7]; 0.4 µM): 0.959
- viability ([7]; 2 µM): 0.881
- viability ([8]; 0.024 µM): 0.943
- viability ([8]; 0.12 µM): 0.965
- viability ([8]; 0.6 µM): 0.908
- viability ([8]; 3 µM): 0.731
- viability ([8]; 15 µM): 0.341
- viability ([9]; 0.024 µM): 0.86
- viability ([9]; 0.12 µM): 0.847
- viability ([9]; 0.6 µM): 0.807
- viability ([9]; 3 µM): 0.787
- viability ([9]; 15 µM): 0.503
- viability ([10]; 0.032 µM): 0.524
- viability ([10]; 0.16 µM): 0.511
- viability ([10]; 0.8 µM): 0.348
- viability ([10]; 4 µM): 0.226
- viability ([10]; 20 µM): 0.279
- viability ([11]; 0.024 µM): 0.645
- viability ([11]; 0.12 µM): 0.832
- viability ([11]; 0.6 µM): 0.857
- viability ([11]; 3 µM): 0.847
- viability ([11]; 15 µM): 0.764
- viability ([12]; 0.016 µM): 0.971
- viability ([12]; 0.08 µM): 1.05
- viability ([12]; 0.4 µM): 0.999
- viability ([12]; 2 µM): 0.973
- viability ([12]; 10 µM): 0.863
- viability ([13]; 0.024 µM): 0.988
- viability ([13]; 0.12 µM): 1.05
- viability ([13]; 0.6 µM): 1.07
- viability ([13]; 3 µM): 0.983
- viability ([13]; 15 µM): 0.826
